The test system of data set [1] is Tau. Put plainly: Tau levels before and after 10 days treatment in MCI patients. Conditions: given for 10 days. It counts as in vivo, human. As to the method: FIG. 24 is a graph illustrating the comparison of Tau before and after treatment with Compound (1) in healthy volunteers.
(§1) For a proof of mechanism study of Compound (1), patients suffering from mild cognitive impairment (MCI) were treated with Compound (1) for 10 days. The patients were dosed with 4×60 mg Compound (1) for 10 days orally, using Posiphen® powder filled into gelatin capsules. Cerebrospinal fluid (CSF) and plasma were drawn from the subjects over a 12 hour period on day 0 and day 11.

Data set [2] concerns APP. It counts as in vivo, mouse. Conditions: trisomy Down Syndrome (Ts65Dn) mice; to control non-DS brain levels.
Data set [3] is described as follows: Binding to brain proteins, rat brain homogenate. In kind it is in vitro ADME. As to the method: (§2) The binding of Compound (t) and metabolites to brain proteins was determined to be ˜96% (rat and human brain homogenate).
The target in data set [4] is T1, AChE (Mus musculus, UniProt P21836).
T1 construct: from tissue; host or cells: brain of Ts65Dn mice
T1 sequence (P21836 32-614): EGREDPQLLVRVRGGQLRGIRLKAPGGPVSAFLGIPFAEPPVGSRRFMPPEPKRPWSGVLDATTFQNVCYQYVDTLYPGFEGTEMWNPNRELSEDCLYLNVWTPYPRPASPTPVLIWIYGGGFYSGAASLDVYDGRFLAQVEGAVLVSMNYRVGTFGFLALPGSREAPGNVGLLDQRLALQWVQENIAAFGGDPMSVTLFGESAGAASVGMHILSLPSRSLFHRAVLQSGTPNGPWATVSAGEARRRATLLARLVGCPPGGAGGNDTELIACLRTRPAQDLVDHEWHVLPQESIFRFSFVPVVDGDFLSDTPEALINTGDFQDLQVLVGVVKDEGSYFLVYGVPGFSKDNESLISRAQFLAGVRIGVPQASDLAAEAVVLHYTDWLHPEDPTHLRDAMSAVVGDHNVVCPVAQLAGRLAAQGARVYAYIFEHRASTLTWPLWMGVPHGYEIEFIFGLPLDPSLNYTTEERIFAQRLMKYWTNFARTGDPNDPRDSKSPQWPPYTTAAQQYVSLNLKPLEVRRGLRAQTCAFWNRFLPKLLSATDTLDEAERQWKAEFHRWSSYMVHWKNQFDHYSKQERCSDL
In words: Brain AChE levels in Ts65Dn mice. The note with it: 50 mg/kg. In kind it is in vivo. The source says: (§3) FIG. 17 is a series of graphs illustrating effects of Compound (1) in Ts65Dn mouse model of Down Syndrome.

The test system of data set [5] is APP, Aβ40 and Aβ42. In words: APP, Aβ40 and Aβ42 levels in mouse brain (Western Blot, ELISA). In kind it is in vivo. The note with it: once daily x 21 day. The procedure:
FIG. 15 is a series of graphs illustrating the in vivo reduction of APP, Aβ40 and Aβ42 levels in mouse brain by Compound (1). Drug was administered once daily×21 day: APP—Western Blot, Aβ—Specific ELISA for 1-40 and 1-42 forms.
In general terms: In western blotting, separated proteins are transferred to a membrane and probed.

A short description of data set [6]: Binding to brain proteins, human brain homogenate. In kind it is in vitro ADME. The procedure: as §2
Data set [7] has as its system APP. In words: 35S incorporation into newly synthesized APP in SH-SY-5Y cells. In kind it is cell-based. The note with it: SH-SY-5Y human neuroblastoma cells; 10 min 35S incorporation; APP mRNA and total protein synthesis not altered. The procedure:
FIG. 5A: 10 min ^35S incorporation into APP, in SH-SY-5Y human neuroblastoma cells. FIG. 5B: newly synthesized total protein. FIG. 5C: newly synthesized APP. FIG. 5D: APP mRNA.

For data set [8], the system named is NGF. Put plainly: Brain NGF levels in Ts65Dn mice. In kind it is in vivo, mouse.
Source text: as §3

Data set [9] in a line: Human pharmacokinetics in plasma and CSF (proof of mechanism study, MCI patients). It counts as in vivo. Conditions: for half-life: human, po. As to the method: as §1
Pharmacokinetic analysis was performed for Compound W) and selected metabolites: N^1-norposiphen, N^8-norposiphen, and N^1,N^8-norposiphen. Pharmacodynamic analysis was performed for APP protein and other AD associated biomarkers in CSF and plasma: APP, Aβ1-40, Aβ1-42, N-APP, AChEI, BChEI, Tau/p-Tau, NGF, BDNF, and inflammatory factors.
(d) in humans, plasma and CSF were analyzed 0 to 12 hours, after administration of the drug.
The levels of Compound (1) and selected metabolites in human plasma (FIG. 22A) and human CSF (FIG. 22B) were determined. […] This was corroborated by measuring half-life of Posiphen® in brains of mice.

The subject of data set [10] is APP. In kind it is in vivo, mouse. Conditions: APP23 transgenic AD mice; 25 mg daily for 14 days; mRNA levels not lowered. As to the method: APP23 transgenic AD mice were treated with 25 mg of Compound (1) daily for 14 days.
In data set [11] the test system is alpha-Syn. Conditions: dopaminergic SH-SY5Y cells; quantitative Western blotting, standardized for β-actin; read-out: efficacy on alpha-Syn expression (IC50); cited from earlier work.
Data set [12] can be described thus: Plasma pharmacokinetics of phenserine in men and women. The note with it: 15 mg dose on day 35 of study. The source says: PT: phenserine; N^8: N^8-desamine phenserine; N^1: N^1-desmethyl phenserine; N^1,N^8: N^1,N^8-desmethyl phenserine.

SMILES strings stand for the structures. Like-named read-outs stand apart in the source and are kept apart here.

As for `CN1CC[C@]2(C)c3cc(OC(=O)Nc4ccccc4)ccc3N(C)C12` (stereo partly drawn) [Compound (1), (3aR)-1,3a,8-trimethyl-1,2,3,3a,8,8a-hexahydropyrrolo[2,3-b]indol-5-yl phenylcarbamate], in data set [1], the Tau levels entry is given as “lowers their Tau levels back to the levels found in healthy volunteers”. Further, the “lowering of APP levels in brain” value in [2] is reported as 30%. For the same compound, the “binding to brain proteins” value in data set [3] and in [6] was approximately 96% in each case. The “lowering of brain AChE levels” value in data set [4] came out at 50%. Moreover, in [5], the “APP, Aβ40 and Aβ42 levels in mouse brain” value is listed as “reduction”. Further, the “newly synthesized APP” value in [7] is “reduces newly synthesized APP”. For the same compound, in [8], the “NGF levels in brain” value was “elevated”. Further, the half-life (in general, how long it takes for the measured level to halve) in data set [9] (CSF, read-out: half-life in human CSF (converted)) was approximately 12 h; in [9] (plasma, read-out: half-life in human plasma (converted)), approximately 5 h. Also, in data set [9] (oral, listed as Posiphen), the “half-life in human plasma” value worked out at 5 h. Also, the “APP levels in the brain” value in data set [10] is listed as “lowered APP levels”. Further, the IC50 (as a rule, the concentration at which inhibition is half-maximal) in data set [11] is less than 5 µM.
As for `CN1CC[C@@]2(C)c3cc(OC(=O)Nc4ccccc4)ccc3N(C)[C@@H]12` [phenserine], the “half life (plasma)” value in [12] is “less than one”.

Source of the values: patent US11096926B2, “(3AR)-1,3A,8-trimethyl-1,2,3,3A,8,8A-hexahydropyrrolo[2,3-b]indol-5-yl phenylcarbamate and methods of treating or preventing neurodegeneration” (priority 2011, dated 2021).
